Test results from patent US20060069132A1, “Azolecarboxamide herbicides” (priority 2004, published 2006).

Legend:
[1] = system: wild oat; assay: Test B postemergence herbicide test; assay type: in vivo, Avena fatua; settings: postemergence
Method in brief: (§1)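 Scale 0–100: zero equals no visible effect, 100 complete control, judged by eye relative to controls. Timing: 13 to 15 days in greenhouse post-treatment. Growth stage at spraying: two leaves (paddy) or one to four leaves, 2–18 cm (postemergence).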

[2] = system: lambsquarters; assay: Test B pre-/postemergence herbicide test; assay type: in vivo, Chenopodium album; settings: for Lambsquarters plant response rating: postemergence
Method in brief: (§2)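 Visual rating, 0 (no effect) to 100 (complete control), versus untreated controls after 13–15 d in greenhouse. Pre- and postemergence applications (postemergence plants 2–18 cm, 1–4 leaves); flooded paddy arm at 2-leaf stage. Compounds in non-phytotoxic solvent plus surfactant.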

[3] = system: barnyardgrass; assay: Test B pre-/postemergence herbicide test; assay type: in vivo, Echinochloa crus-galli; settings: for Barnyardgrass plant response rating: postemergence, scale 0 (no effect) to 100 (complete control)
Method in brief: (§3)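 Formulation: non-phytotoxic solvent mix with surfactant. Timing: preemergence on seed and postemergence on 2–18 cm plants, applied concurrently. Readout after 13–15 d greenhouse: visual 0–100 control rating against controls.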

[4] = system: large crabgrass; assay: Test B pre-/postemergence herbicide test; assay type: in vivo, Digitaria sanguinalis; settings: for Crabgrass, Large plant response rating: postemergence
Method in brief: as §2

[5] = system: Surinam grass; assay: Test B pre-/postemergence herbicide test; assay type: in vivo, Urochloa decumbens; settings: for Surinam Grass plant response rating: postemergence
Method in brief: as §2

[6] = system: giant foxtail; assay: Test B pre-/postemergence herbicide test; assay type: in vivo, Setaria faberi; settings: for Foxtail, Giant plant response rating: postemergence
Method in brief: as §2

[7] = system: ducksalad; assay: Test C flooded paddy test; assay type: in vivo, Heteranthera limosa
[8] = system: small flower umbrella sedge; assay: Test B flooded paddy test; assay type: in vivo, Cyperus difformis; settings: 1000 g ai/ha, scale 0 to 100 (0 no effect, 100 complete control)
Method in brief: as §1

[9] = system: barnyardgrass; assay: Test B flooded paddy test; assay type: in vivo, Echinochloa crus-galli; settings: 1000 g ai/ha, scale 0 to 100 (0 no effect, 100 complete control)
Method in brief: as §1

[10] = system: blackgrass; assay: Test B postemergence herbicide test; assay type: in vivo, Alopecurus myosuroides; settings: postemergence, visual rating, scale 0 (no effect) to 100 (complete control)
Method in brief: as §1

[11] = system: corn; assay: Test B pre-/postemergence herbicide test; assay type: in vivo, Zea mays; settings: for Corn plant response rating: postemergence
Method in brief: as §2

[12] = system: rice; assay: Test B pre-/postemergence herbicide test; assay type: in vivo, Oryza sativa; settings: 0 = no effect, 100 = complete control, preemergence
Method in brief: as §2

[13] = system: morningglory; assay: Test B pre-/postemergence herbicide test; assay type: in vivo, Ipomoea coccinea; settings: for Morningglory plant response rating: postemergence
Method in brief: as §3

[14] = system: rice; assay: Test B flooded paddy test; assay type: in vivo, Oryza sativa; settings: 1000 g ai/ha, scale 0 to 100 (0 no effect, 100 complete control)
Method in brief: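 Read-out: visual comparison with controls, scored 0 to 100, where 100 means complete control and 0 no effect. Formulated chemicals were applied postemergence to plants 2–18 cm tall (1- to 4-leaf), or to flooded-paddy plants at the 2-leaf stage, then held 13 to 15 days under glass.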

[15] = system: ducksalad; assay: Test B flooded paddy test; assay type: in vivo, Heteranthera limosa; settings: 1000 g ai/ha, scale 0 to 100 (0 no effect, 100 complete control)
Method in brief: as §1

[16] = system: velvetleaf; assay: Test B pre-/postemergence herbicide test; assay type: in vivo, Abutilon theophrasti; settings: for Velvetleaf plant response rating: postemergence
Method in brief: as §2

[17] = system: barnyardgrass; assay: Test C flooded paddy test; assay type: in vivo, Echinochloa crus-galli
Method in brief: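 Scoring by eye, 12–14 days post-treatment, greenhouse-held plants vs. controls; 0 no effect, 100 complete control. Sprayed at 1–4 leaves (2–18 cm); paddy barnyardgrass at 2 leaves, flooded.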

[18] = system: smallflower umbrella sedge; assay: Test C flooded paddy test; assay type: in vivo, Cyperus difformis
[19] = system: pigweed; assay: Test B pre-/postemergence herbicide test; assay type: in vivo, Amaranthus retroflexus; settings: for Pigweed plant response rating: postemergence
Method in brief: as §2

[20] = system: cocklebur; assay: Test B pre-/postemergence herbicide test; assay type: in vivo, Xanthium strumarium; settings: postemergence, visual rating, scale 0 (no effect) to 100 (complete control)
Method in brief: as §3

[21] = system: rice; assay: Test C flooded paddy test; assay type: in vivo, Oryza sativa
Method in brief: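 Injury scored visually against controls on a 0 (no effect) to 100 (complete control) scale, 12 to 14 days after treatment in greenhouse. Flooded paddy plants treated at 2-leaf stage; postemergence plants at 1- to 4-leaf stage, 2 to 18 cm tall.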

[22] = system: wheat; assay: Test B postemergence herbicide test; assay type: in vivo, Triticum aestivum; set-up: key to Wheat plant response rating: 0 = no effect, 100 = complete control; settings: postemergence
Method in brief: as §1

[23] = 125 g ai/ha, visual rating, scale 0 (no effect) to 100 (complete control)
[24] = 500 g ai/ha, scale 0 to 100, 0 is no effect, 100 is complete control
[25] = 125 g ai/ha, 0 = no effect, 100 = complete control, preemergence
[26] = 500 g ai/ha, visual rating, 0 = no effect, 100 = complete control, preemergence
[27] = 125 g ai/ha, scale 0 to 100 (0 no effect, 100 complete control)
[28] = 250 g ai/ha, scale of 0 to 100, 0 is no effect, 100 is complete control
[29] = 500 g ai/ha, visual rating after 12 to 14 days, scale 0 to 100 (0 no effect, 100 complete control)

Compound: CCN(C)C(=O)c1cncc(NC(=O)c2cc(C(C)(C)C)nn2CC)c1 [Compound 263]
- Oat, Wild plant response rating [1, 23]: 10
- Oat, Wild plant response rating [1, 24]: 20
- Lambsquarters plant response rating (0 to 100 scale) [2, 25]: 70
- Plant response rating, Lambsquarters [2, 26]: 100
- Lambsquarters plant response rating [2, 23]: 70
- Lambsquarters plant response rating [2, 24]: 80
- Barnyardgrass plant response rating (0 to 100 scale) [3, 25]: 10
- Plant response rating, Barnyardgrass [3, 26]: 40
- Barnyardgrass plant response rating ([3]; 125 g ai/ha, visual rating): 0
- Barnyardgrass plant response rating ([3]; 500 g ai/ha, visual rating): 10
- Crabgrass, Large plant response rating (0 to 100 scale) [4, 25]: 10
- Plant response rating, Crabgrass, Large [4, 26]: 60
- Crabgrass, Large plant response rating [4, 23]: 10
- Crabgrass, Large plant response rating [4, 24]: 20
- Surinam Grass plant response rating (0 to 100 scale) [5, 25]: 10
- Plant response rating, Surinam Grass [5, 26]: 30
- Surinam Grass plant response rating [5, 23]: 10
- Surinam Grass plant response rating [5, 24]: 10
- Foxtail, Giant plant response rating (0 to 100 scale) [6, 25]: 0
- Plant response rating, Foxtail, Giant [6, 26]: 20
- Foxtail, Giant plant response rating [6, 23]: 0
- Foxtail, Giant plant response rating [6, 24]: 20
- Ducksalad plant response rating ([7]; 62 g ai/ha, scale 0 to 100): 0
- Ducksalad plant response rating [7, 27]: 0
- Ducksalad plant response rating [7, 28]: 75
- Plant response rating, Ducksalad [7, 29]: 90
- Sedge, Umbrella plant response rating [8]: 80
- Barnyardgrass plant response rating [9]: 60
- Blackgrass plant response rating ([10]; 125 g ai/ha): 10
- Blackgrass plant response rating ([10]; 500 g ai/ha): 20
- Corn plant response rating (0 to 100 scale) [11, 25]: 0
- Plant response rating, Corn [11, 26]: 0
- Corn plant response rating [11, 23]: 0
- Corn plant response rating [11, 24]: 10
- Rice plant response rating (0 to 100 scale) ([12]; 125 g ai/ha): 0
- Plant response rating, Rice ([12]; 500 g ai/ha, visual rating): 10
- Morningglory plant response rating (0 to 100 scale) [13, 25]: 0
- Plant response rating, Morningglory [13, 26]: 0
- Morningglory plant response rating [13, 23]: 0
- Morningglory plant response rating [13, 24]: 20
- Rice plant response rating [14]: 70
- Ducksalad plant response rating [15]: 90
- Velvetleaf plant response rating (0 to 100 scale) [16, 25]: 10
- Plant response rating, Velvetleaf [16, 26]: 90
- Velvetleaf plant response rating [16, 23]: 20
- Velvetleaf plant response rating [16, 24]: 20
- Barnyardgrass plant response rating ([17]; 62 g ai/ha, scale 0 to 100 (0 no effect, 100 complete control)): 0
- Barnyardgrass plant response rating [17, 27]: 0
- Barnyardgrass plant response rating [17, 28]: 0
- Plant response rating, Barnyardgrass [17, 29]: 0
- Sedge, Umbrella plant response rating ([18]; 62 g ai/ha, scale 0 to 100): 0
- Sedge, Umbrella plant response rating [18, 27]: 0
- Sedge, Umbrella plant response rating [18, 28]: 30
- Plant response rating, Sedge, Umbrella [18, 29]: 50
- Pigweed plant response rating (0 to 100 scale) [19, 25]: 80
- Plant response rating, Pigweed [19, 26]: 100
- Pigweed plant response rating [19, 23]: 60
- Pigweed plant response rating [19, 24]: 90
- Cocklebur plant response rating ([20]; 125 g ai/ha): 0
- Cocklebur plant response rating ([20]; 500 g ai/ha): 10
- Rice plant response rating ([21]; 62 g ai/ha, scale 0 to 100): 0
- Rice plant response rating [21, 27]: 0
- Rice plant response rating [21, 28]: 0
- Plant response rating, Rice [21, 29]: 25
- Wheat plant response rating [22, 23]: 10
- Wheat plant response rating [22, 24]: 20
